# Measurements published in patent US10383909B2, “Use of a plant extract, pharmaceutical compositions and use thereof” (HEBRON FARMACEUTICA PESQUISA, DESENVOLVIMENTO E INOVACAO …, priority 2010, dated 2019).
# “And” between values parts separate entries of the source, which are not always exact repeats. Equal values may be shown once.
# Tests used:
# Format in all cases: in vivo, human
# Helicobacter pylori = assay: Analysis for Helicobacter pylori in biopsy after treatment; details: after 28 days
# Method: (§1) Patients included in the sample performed two esophagogastroduodenoscopy tests (EGD) with biopsy and analysis for Helicobacter pylori. The first test was made before the treatment, and the second, after four weeks (28 days) on medication. The protocol for administration of medications included: ingestion of one (1) the tablet based on Aroeira (about 233.60 mg) twice daily for four weeks (28 days), or the ingestion of 20 mg Omeprazole, two tablets twice daily for the same period. For data analysis, we used the Epi Info program, v.3.5.1, and Microsoft Excel 2007. Since they are categorical variables, Odds Ratios were evaluated and significant results were verified through a crude chi-squared test or with a Yates correction, when applicable, and alternatively the Fisher Exact Test when indicated. A Z test was also used to compare proportions when the expected frequencies were greater than or equal to 5. Confidence intervals were calculated for 95% confidence, with significant differences smaller than 5%.
# [1] = Esophagogastroduodenoscopy (EGD) before and after four weeks of treatment: gastritis present or absent; details: 2nd EGD after 28 days
# Description: as §1, with “To evaluate the efficacy of hydroalcoholic extract of S. terebinthifolius in the form of a medication, 72 volunteer patients of both genders with diagnosed gastritis were selected. Anthropomorphic characteristics, such as age, weight and height were similar. The criteria for inclusion of patients in the sample were aged between 16 and 80 years (mean age was 40 years), with diagnosis of gastritis confirmed by endoscopy and pathological examination, and consent after clarification for study participation. We excluded patients who were treated with proton pump inhibitors, anti-inflammatory non-steroidal, H-2 receptor blockers and/or antacids during the month preceding the study. Patients” for “Patients”, “period. Classification with gradations and intensity of gastritis was based on the Sydney System.” for “period.”
# [2] = Intensity of gastritis by histopathological examination before and after treatment (Sydney System)
# Method: as §1, with “period. Classification with gradations and intensity of gastritis was based on the Sydney System.” for “period.”
# [3] = Patient questionnaire on gastritis symptoms before and after treatment; details: gastritis patients, oral, four weeks (28 days)
# Description: To evaluate the efficacy of hydroalcoholic extract of S. terebinthifolius in the form of a medication, 72 volunteer patients of both genders with diagnosed gastritis were selected. Anthropomorphic characteristics, such as age, weight and height were similar. The criteria for inclusion of patients in the sample were aged between 16 and 80 years (mean age was 40 years), with diagnosis of gastritis confirmed by endoscopy and pathological examination, and consent after clarification for study participation. We excluded patients who were treated with proton pump inhibitors, anti-inflammatory non-steroidal, H-2 receptor blockers and/or antacids during the month preceding the study.
# The sample was randomly divided into two groups:
# Group I—38 patients who used the medication based on Aroeira (Schinus terebinthifolius Raddi);
# Group II—34 patients who used the drug Omeprazole (control group).
# The protocol for administration of medications included: ingestion of one (1) the tablet based on Aroeira (about 233.60 mg) twice daily for four weeks (28 days), or the ingestion of 20 mg Omeprazole, two tablets twice daily for the same period.
# For data analysis, we used the Epi Info program, v.3.5.1, and Microsoft Excel 2007. Since they are categorical variables, Odds Ratios were evaluated and significant results were verified through a crude chi-squared test or with a Yates correction, when applicable, and alternatively the Fisher Exact Test when indicated. A Z test was also used to compare proportions when the expected frequencies were greater than or equal to 5. Confidence intervals were calculated for 95% confidence, with significant differences smaller than 5%.
# The results were obtained through a questionnaire completed by each patient, under the supervision of a specialist.
# [4] = intensity before treatment Mild/Discrete
# [5] = intensity before treatment Moderate
smiles,measurement,setting,value
COc1ccc2[nH]c([S+]([O-])Cc3ncc(C)c(OC)c3C)nc2c1 (stereo not shown) [Omeprazole],"H. pylori Absent after treatment, % (eradication rate)",Helicobacter pylori,9.4% and 9.38%
same,"H. pylori Absent after treatment, N° of patients",Helicobacter pylori,3
same,"H. pylori Present after treatment, %",Helicobacter pylori,90.63%
same,"H. pylori Present after treatment, N° of patients",Helicobacter pylori,29
same,"Gastritis Absent after treatment, % (disappearance of endoscopic mucosal injury)",[1],0%
same,"Gastritis Absent after treatment, N° of patients",[1],0
same,"Gastritis Present after treatment, %",[1],100%
same,"Gastritis Present after treatment, N° of patients",[1],34
same,"Intensity after treatment Mild/Discrete, %",[2]; [4],54.50%
same,"Intensity after treatment Mild/Discrete, No. of patients",[2]; [4],12
same,"Intensity after treatment Moderate, %",[2]; [4],45.5%
same,"Intensity after treatment Moderate, N of patients",[2]; [4],10
same,"Intensity after treatment Mild/Discrete, % (improvement)",[2]; [5],27.30%
same,"Intensity after treatment Moderate, %",[2]; [5],72.70%
same,"Intensity after treatment Moderate, N of patients",[2]; [5],8
same,Percentage of improvement in symptoms after treatment: Abdominal discomfort relieved with meals,[3],85.70%
same,Percentage of improvement in symptoms after treatment: Frequent epigastric pain,[3],72.70%
same,Percentage of improvement in symptoms after treatment: Heartburn,[3],71.40%
same,Percentage of improvement in symptoms after treatment: Nausea,[3],72.20%
